These results are taken from patent publication US11226337B2, “Chemoproteomic profiling of protein electrophilic and oxidative post-translational modifications” (Zenagem, LLC, priority 2017, dated 2022).

For experiment [1], the target named is T1, APP Amyloid beta A4 protein (P05067) (Homo sapiens, UniProt P05067).
T1 construct: shared by both the endogenous and recombinant forms of these proteins; endogenous in cells; host or cells: HEK293T and MDA-MB-231
Briefly: SILAC RP-ABPP. In kind it is cell-based. As to conditions: SILAC H/L, MDA-MB-231. The method in brief: (§1)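 SILAC cells (HEK293T, MDA-MB-231) grown near confluence; heavy: probe 1, 3 mM, 0.5 h; light: equal 3 or probe + 10× 3. Proteomes mixed equimolar, CuAAC with 100 μM biotin-azide, 1 h RT; enrichment, LC-MS. Ratios via CIMAGE-type extraction, ≥3 peptides.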

The target in experiment [2] is T2, BLVRB Flavin reductase (NADPH) (P30043) (Homo sapiens, UniProt P30043).
T2 construct: shared by both the endogenous and recombinant forms of these proteins; endogenous in cells; host or cells: HEK293T and MDA-MB-231
Briefly: SILAC RP-ABPP. The format is cell-based. The settings on record: SILAC H/L, HEK293T. The method in brief:
as §1

For experiment [3], the target named is T3, CCBL2 Kynurenine oxoglutarate transaminase (Q6YP21) (Homo sapiens, UniProt Q6YP21).
T3 construct: shared by both the endogenous and recombinant forms of these proteins; endogenous in cells; host or cells: HEK293T and MDA-MB-231
Briefly: SILAC RP-ABPP. In kind it is cell-based. As to conditions: SILAC H/L, HEK293T. The essentials: as §1

In experiment [4] the target is T4, CPVL Probable serine carboxypeptidase CPVL (Q9H3G5) (Homo sapiens, UniProt Q9H3G5).
T4 construct: shared by both the endogenous and recombinant forms of these proteins; endogenous in cells; host or cells: HEK293T and MDA-MB-231
Description: SILAC RP-ABPP. The format is cell-based. As to conditions: SILAC H/L, HEK293T. The method in brief: as §1

The target of experiment [5] is T5, DCUN1D5 DCN1like protein 5 (Q9BTE7) (Homo sapiens, UniProt Q9BTE7).
T5 construct: shared by both the endogenous and recombinant forms of these proteins; endogenous in cells; host or cells: HEK293T and MDA-MB-231
Description: SILAC RP-ABPP. The settings on record: SILAC H/L, HEK293T. The format is cell-based. The essentials: as §1

Experiment [6] deals with T6, GLA Alphagalactosidase A (P06280) (Homo sapiens, UniProt P06280).
T6 construct: shared by both the endogenous and recombinant forms of these proteins; endogenous in cells; host or cells: HEK293T and MDA-MB-231
Briefly: SILAC RP-ABPP. The settings on record: SILAC H/L, HEK293T. The format is cell-based. The essentials: as §1

For experiment [7], the target named is T7, NSFL1C NSFL1 cofactor p47 (Q9UNZ2) (Homo sapiens, UniProt Q9UNZ2).
T7 construct: In Situ Labelling of Cells with Hydrazine Probes for MS Experiments; endogenous in cells
Description: SILAC RP-ABPP. The format is cell-based. As to conditions: SILAC H/L, MDA-MB-231. The method in brief: as §1

Experiment [8] deals with T8, PPA2 Inorganic pyrophosphatase 2 (Q9H2U2) (Homo sapiens, UniProt Q9H2U2).
T8 construct: In Situ Labelling of Cells with Hydrazine Probes for MS Experiments; endogenous in cells
Description: SILAC RP-ABPP. In kind it is cell-based. The settings on record: SILAC H/L, HEK293T. The essentials:
as §1

Experiment [9] concerns the target T9, THBS1 Thrombospondin1 (P07996) (Homo sapiens, UniProt P07996).
T9 construct: In Situ Labelling of Cells with Hydrazine Probes for MS Experiments; endogenous in cells
Description: SILAC RP-ABPP. The format is cell-based. As to conditions: SILAC H/L, MDA-MB-231. The essentials: as §1

The target in experiment [10] is T10, SCD AcylCoA desaturase (O00767) (Homo sapiens, UniProt O00767).
T10 construct: In Situ Labelling of Cells with Hydrazine Probes for MS Experiments; endogenous in cells
Description: SILAC RP-ABPP. The format is cell-based. As to conditions: SILAC H/L, HEK293T. The essentials:
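Heavy SILAC HEK293T or MDA-MB-231 cells were treated with a clickable hydrazine probe; light cells received the non-clickable analogue (enrichment) or the probe plus 10-fold excess non-clickable competitor (competition). Mixed proteomes underwent CuAAC with 100 μM biotin-azide for 1 h. Heavy:light ratios were taken as median peptide ratios (≥3 peptides) averaged over ≥3 replicates.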

Experiment [11] concerns lung, brain and liver tissue. Description: in vivo probe labelling, in-gel fluorescence of tissue proteomes. On the set-up: species or system mice. The settings on record: i.p., four hours; soluble and membrane proteomes. How it is done:
Studies were conducted to determine whether probes can be used to label proteins in vivo. Mice were injected intraperitoneally (i.p,) with hydrazine probe 2. After treatment with probes for four hours, lung, brain and liver tissue was harvested, processed and labeled with rhodamine azide as described in Example 2. Probe labelled proteins were visualized by in-gel fluorescence scanning. The results are shown FIGS. 24A and 24B.

T9 sequence (P07996 19-1170): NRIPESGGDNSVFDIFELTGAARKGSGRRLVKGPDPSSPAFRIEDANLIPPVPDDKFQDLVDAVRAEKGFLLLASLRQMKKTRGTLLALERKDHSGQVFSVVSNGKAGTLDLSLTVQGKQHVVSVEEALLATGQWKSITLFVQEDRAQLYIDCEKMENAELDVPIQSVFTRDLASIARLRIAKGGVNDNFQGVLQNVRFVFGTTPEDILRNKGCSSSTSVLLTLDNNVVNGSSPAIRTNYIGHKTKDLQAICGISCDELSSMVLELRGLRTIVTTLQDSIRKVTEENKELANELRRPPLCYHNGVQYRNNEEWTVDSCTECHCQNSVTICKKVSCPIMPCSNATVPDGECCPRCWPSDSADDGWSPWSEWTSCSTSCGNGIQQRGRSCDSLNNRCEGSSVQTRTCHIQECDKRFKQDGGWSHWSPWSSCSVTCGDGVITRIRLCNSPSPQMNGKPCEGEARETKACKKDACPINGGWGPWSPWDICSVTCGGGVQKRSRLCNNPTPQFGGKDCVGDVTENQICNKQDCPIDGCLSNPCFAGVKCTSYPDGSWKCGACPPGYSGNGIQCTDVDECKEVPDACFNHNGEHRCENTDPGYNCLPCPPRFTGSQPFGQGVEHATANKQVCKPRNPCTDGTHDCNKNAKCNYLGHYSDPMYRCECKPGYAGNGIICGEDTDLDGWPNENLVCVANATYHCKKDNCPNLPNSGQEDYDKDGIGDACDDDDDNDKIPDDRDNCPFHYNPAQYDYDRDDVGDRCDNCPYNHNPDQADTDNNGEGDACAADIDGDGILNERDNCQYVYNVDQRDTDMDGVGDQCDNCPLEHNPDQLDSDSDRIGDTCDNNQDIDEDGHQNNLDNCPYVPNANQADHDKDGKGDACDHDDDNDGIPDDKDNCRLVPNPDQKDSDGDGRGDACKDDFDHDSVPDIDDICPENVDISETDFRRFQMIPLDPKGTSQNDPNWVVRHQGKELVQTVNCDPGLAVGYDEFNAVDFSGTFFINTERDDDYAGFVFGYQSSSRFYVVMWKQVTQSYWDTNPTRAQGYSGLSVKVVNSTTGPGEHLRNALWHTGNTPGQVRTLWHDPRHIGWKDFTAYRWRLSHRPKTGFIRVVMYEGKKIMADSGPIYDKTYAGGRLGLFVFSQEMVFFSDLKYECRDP
T1 sequence (P05067 18-770): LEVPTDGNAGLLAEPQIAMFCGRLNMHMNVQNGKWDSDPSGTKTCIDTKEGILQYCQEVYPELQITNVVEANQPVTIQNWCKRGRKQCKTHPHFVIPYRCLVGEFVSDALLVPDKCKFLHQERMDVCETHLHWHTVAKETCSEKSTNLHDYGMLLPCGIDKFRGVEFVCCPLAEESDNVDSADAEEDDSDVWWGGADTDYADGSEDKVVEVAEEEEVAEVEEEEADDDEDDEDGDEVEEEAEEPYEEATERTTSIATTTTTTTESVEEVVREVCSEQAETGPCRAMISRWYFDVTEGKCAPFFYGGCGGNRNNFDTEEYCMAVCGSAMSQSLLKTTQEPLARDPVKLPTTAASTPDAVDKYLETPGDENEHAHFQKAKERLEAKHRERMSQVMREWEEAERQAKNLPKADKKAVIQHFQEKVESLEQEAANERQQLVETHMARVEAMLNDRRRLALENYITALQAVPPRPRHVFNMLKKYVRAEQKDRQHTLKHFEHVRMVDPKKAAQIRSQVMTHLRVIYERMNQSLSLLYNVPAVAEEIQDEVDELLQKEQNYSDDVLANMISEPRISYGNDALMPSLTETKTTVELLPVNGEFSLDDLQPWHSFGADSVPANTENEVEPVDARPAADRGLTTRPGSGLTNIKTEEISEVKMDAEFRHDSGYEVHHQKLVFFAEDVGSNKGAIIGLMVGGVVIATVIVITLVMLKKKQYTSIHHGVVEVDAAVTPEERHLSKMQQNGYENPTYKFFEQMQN
T6 sequence (P06280 32-429): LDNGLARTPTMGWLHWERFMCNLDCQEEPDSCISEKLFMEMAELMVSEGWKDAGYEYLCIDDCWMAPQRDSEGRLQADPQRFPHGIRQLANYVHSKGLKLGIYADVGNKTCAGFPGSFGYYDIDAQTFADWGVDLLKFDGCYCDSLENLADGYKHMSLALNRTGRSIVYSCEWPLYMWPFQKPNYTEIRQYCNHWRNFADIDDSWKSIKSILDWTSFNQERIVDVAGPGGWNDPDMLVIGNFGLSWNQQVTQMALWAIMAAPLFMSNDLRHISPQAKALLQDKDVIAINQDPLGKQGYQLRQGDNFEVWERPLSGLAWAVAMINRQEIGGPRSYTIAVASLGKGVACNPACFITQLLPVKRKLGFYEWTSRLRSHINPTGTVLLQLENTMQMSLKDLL
T5 sequence (Q9BTE7 whole entry): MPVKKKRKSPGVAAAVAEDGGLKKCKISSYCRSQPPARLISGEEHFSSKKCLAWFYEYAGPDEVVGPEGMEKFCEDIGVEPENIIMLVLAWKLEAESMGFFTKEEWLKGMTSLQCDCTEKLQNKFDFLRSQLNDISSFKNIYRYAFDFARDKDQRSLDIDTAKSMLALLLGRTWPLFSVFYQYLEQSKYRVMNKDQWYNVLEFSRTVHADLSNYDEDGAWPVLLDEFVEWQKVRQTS
T3 sequence (Q6YP21 whole entry): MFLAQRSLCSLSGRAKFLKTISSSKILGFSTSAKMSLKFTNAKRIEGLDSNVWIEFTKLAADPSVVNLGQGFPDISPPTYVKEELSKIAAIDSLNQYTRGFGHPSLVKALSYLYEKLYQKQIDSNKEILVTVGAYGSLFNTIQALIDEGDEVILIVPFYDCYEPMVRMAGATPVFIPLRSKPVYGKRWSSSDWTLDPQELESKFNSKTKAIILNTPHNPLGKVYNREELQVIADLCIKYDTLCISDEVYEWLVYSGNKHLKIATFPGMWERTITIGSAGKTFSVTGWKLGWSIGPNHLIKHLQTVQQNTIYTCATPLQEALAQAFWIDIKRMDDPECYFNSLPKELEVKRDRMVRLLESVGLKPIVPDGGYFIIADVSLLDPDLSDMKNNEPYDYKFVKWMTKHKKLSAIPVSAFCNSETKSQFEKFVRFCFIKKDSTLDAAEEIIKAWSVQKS
T2 sequence (P30043 whole entry): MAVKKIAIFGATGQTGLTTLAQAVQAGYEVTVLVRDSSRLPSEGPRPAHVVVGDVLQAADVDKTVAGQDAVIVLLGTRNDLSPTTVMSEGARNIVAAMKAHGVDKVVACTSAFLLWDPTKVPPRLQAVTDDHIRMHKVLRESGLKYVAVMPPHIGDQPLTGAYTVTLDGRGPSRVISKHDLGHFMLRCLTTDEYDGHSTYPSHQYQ
T8 sequence (Q9H2U2 33-334): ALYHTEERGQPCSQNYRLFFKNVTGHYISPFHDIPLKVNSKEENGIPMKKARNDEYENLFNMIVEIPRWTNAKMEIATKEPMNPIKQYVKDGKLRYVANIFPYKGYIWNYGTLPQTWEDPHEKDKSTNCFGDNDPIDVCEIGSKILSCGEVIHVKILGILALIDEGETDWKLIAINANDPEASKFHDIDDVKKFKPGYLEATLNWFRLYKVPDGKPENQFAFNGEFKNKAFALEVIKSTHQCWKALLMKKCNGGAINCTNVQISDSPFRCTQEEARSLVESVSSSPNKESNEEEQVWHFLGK
T10 sequence (O00767 whole entry): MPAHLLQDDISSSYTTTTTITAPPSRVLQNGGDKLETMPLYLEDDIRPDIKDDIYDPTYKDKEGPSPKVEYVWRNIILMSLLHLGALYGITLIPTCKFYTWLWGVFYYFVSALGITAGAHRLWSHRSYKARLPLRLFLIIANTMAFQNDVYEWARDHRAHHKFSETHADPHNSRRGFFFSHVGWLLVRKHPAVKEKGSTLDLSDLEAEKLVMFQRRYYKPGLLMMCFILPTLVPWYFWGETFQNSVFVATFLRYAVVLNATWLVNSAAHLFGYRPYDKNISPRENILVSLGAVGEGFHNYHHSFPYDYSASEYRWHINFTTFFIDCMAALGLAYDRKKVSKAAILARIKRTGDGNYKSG
T7 sequence (Q9UNZ2 whole entry): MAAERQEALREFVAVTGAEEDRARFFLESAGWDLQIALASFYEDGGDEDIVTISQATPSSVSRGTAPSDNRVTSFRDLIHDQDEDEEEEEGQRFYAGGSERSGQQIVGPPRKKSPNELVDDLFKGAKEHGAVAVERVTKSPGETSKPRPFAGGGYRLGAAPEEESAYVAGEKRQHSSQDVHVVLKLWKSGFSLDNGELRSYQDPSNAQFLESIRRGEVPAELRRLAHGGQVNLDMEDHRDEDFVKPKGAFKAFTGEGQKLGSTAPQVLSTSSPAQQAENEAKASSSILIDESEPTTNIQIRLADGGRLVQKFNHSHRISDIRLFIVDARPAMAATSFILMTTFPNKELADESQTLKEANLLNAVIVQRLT
T4 sequence (Q9H3G5 23-476): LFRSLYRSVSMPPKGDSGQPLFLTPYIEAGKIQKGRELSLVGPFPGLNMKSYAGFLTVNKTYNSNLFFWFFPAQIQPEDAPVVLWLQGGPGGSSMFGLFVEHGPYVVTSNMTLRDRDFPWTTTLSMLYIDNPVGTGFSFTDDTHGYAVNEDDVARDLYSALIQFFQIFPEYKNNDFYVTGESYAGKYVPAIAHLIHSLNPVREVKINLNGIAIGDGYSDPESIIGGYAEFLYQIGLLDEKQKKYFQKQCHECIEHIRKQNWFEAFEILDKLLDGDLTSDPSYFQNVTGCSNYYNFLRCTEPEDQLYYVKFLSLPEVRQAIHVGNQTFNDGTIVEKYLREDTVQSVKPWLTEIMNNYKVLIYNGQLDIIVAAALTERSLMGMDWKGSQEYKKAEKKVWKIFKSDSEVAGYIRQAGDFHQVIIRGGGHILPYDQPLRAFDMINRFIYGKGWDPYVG

On to `C#CCNN.Cl` [probe 1, prop-2-yn-1-ylhydrazine hydrochloride], for which the enrichment ratioavg amounted to 16 in experiment [1] (probe 1 3 mM 0.5 h vs probe 3); 20 in experiment [2] (probe 1 3 mM 0.5 h vs probe 3); 10 in experiment [3] (probe 1 3 mM 0.5 h vs probe 3); 13 in experiment [4] (probe 1 3 mM 0.5 h vs probe 3); 6 in experiment [5] (probe 1 3 mM 0.5 h vs probe 3); 11 in [6] (probe 1 3 mM 0.5 h vs probe 3). Also, the enrichment ratioavg in [7] (probe 1 3 mM 0.5 h vs probe 3) worked out at 8; in experiment [8] (probe 1 3 mM 0.5 h vs probe 3), 7; in [9] (probe 1 3 mM 0.5 h vs probe 3), 16. For the same molecule, the competition ratioavg is recorded as 4 in [1] (probe 1 vs probe 1+10x probe 3); 2 in experiment [2] (probe 1 vs probe 1+10x probe 3); 4 in experiment [3] (probe 1 vs probe 1+10x probe 3); 3 in [4] (probe 1 vs probe 1+10x probe 3); 2 in experiment [5] (probe 1 vs probe 1+10x probe 3); 3 in experiment [6] (probe 1 vs probe 1+10x probe 3). Also, the competition ratioavg in experiment [7] (probe 1 vs probe 1+10x probe 3), in experiment [8] (probe 1 vs probe 1+10x probe 3) and in experiment [9] (probe 1 vs probe 1+10x probe 3) was 1 throughout.

The molecule `C#CCCNC(=O)c1ccc(NN)cc1.Cl` [probe 2, N-(but-3-yn-1-yl)-4-hydrazinylbenzamide hydrochloride] gave an enrichment ratioavg in experiment [10] (probe 2 1 mM 0.5 h vs probe 4) of 20. The same molecule yielded a competition ratioavg in experiment [10] (probe 2 vs probe 2+10x probe 4) of 9. Also, in experiment [11], the “labelling of proteins in vivo” value was “can be used to label and profile proteins in vivo”.
